Results reported in patent publication US20240199555A1, “APPLICATIONS OF BIASED LIGANDS OF THE SEROTONIN 5-HT7 RECEPTOR FOR THE TREATMENT OF PAIN, MULTIPLE SCLEROSIS AND THE CONTROL OF THERMOREGULATION” (Centre National de la Recherche Scientifique, priority 2021, published 2024).
Where two headings read alike, the source gives them in different places.

Assays:
[1] = test system: mouse; assay: Effect on body temperature; type: in vivo; details: intravenous
Text: FIG. 13: Evaluation of the effect of Serodolin on body temperature.
FIG. 17: Evaluation of the effect of MOA51 on body temperature. Results expressed in ° C.
The time course of the effect of Serodolin on the body temperature has been evaluated in the mouse following intravenous administration.

[2] = target: human 5-HT2Cedited receptor (Homo sapiens, UniProt P28335); assay: Radioligand binding competition, 5-HT2Cedited; details: selectivity panel
Chain of human 5-HT2Cedited receptor (P28335 33-458 limits assumed): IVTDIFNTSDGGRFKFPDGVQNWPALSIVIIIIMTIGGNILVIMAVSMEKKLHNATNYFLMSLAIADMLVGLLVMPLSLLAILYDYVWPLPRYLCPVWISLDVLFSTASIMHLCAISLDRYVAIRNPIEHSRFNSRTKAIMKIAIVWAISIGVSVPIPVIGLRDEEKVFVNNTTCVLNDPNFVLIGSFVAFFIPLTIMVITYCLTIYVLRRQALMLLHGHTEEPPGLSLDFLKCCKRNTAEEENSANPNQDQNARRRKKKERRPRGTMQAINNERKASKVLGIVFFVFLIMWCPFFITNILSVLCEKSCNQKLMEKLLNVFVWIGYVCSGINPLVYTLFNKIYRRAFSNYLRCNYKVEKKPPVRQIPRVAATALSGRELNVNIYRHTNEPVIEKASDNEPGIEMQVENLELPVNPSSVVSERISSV

[3] = test system: mice; assay: Tail immersion test (50° C.); type: in vivo
Method: (A) Experimental protocol summary used. (B) Mice were subcutaneously injected with two different doses of the 5-HT7 receptor agonist Serodolin, 1 mg/kg or 5 mg/kg and 10 min later their tail extremity was immersed in water heated to 50 degrees. […] The effect of injections (Serodolin or E55888) was evaluated at TO, 30 min and 60 min corresponding to 10, 40 and 70 min after compound injections. […] Their tail extremity was immersed in water heated to 50 degrees at TO (E) or 30 min later (F) corresponding to 10 and 40 min after agonist injections. […] Statistical analysis was done using Tukey's multiple comparison test.
Tail immersion test. Nociception was assessed with the tail immersion test, 10 min and 40 min after E55888 (5 mg/kg) or Serodolin (5 mg/kg) tail subcutaneous injections, in the water heated to 50° C. Vehicle (20% DMSO, 5% Tween 80 diluted in PBS solution) was used as a control group. These different groups were intraperitoneally injected (+) or not (−) with the 5-HT7R antagonist SB269960 (5 mg/kg) 10 min before the ligand injection. The tail withdrawal latency (s) was measured for each animal.

[4] = target: human 5-HT1A receptor (Homo sapiens (Human), UniProt P08908); assay: Radioligand binding competition, 5-HT1A; details: selectivity panel
Chain of human 5-HT1A receptor (P08908 whole entry): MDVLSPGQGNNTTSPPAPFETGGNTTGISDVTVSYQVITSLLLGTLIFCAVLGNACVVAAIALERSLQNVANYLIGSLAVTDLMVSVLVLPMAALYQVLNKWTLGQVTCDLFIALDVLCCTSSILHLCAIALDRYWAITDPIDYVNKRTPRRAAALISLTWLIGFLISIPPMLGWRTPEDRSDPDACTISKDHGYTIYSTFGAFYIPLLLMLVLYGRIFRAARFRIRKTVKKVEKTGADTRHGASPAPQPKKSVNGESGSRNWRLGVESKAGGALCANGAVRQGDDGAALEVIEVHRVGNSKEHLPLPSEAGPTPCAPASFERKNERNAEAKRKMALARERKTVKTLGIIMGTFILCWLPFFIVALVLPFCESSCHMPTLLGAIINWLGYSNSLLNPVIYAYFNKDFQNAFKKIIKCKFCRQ

[5] = target: h5-HT7R (Homo sapiens (Human), UniProt P34969); assay: cAMP accumulation (LANCE cAMP detection kit) in HEK-293 cells stably expressing h5-HT7R; type: cell-based
Chain of h5-HT7R (P34969 1-432): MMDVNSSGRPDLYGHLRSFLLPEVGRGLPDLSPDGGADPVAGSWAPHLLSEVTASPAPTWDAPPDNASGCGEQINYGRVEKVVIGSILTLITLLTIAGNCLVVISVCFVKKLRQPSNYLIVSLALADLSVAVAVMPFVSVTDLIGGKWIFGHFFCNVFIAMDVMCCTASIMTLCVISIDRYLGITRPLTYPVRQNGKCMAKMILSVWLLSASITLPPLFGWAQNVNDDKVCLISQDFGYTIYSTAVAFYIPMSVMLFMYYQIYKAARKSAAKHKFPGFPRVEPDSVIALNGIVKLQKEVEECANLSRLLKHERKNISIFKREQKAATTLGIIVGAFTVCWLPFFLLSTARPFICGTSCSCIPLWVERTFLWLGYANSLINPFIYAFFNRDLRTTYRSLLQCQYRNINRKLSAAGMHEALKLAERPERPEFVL
Method: (B) HEK-293 cells stably expressing h5-HT7R were stimulated with 10 nM of 5-CT and increasing concentrations of products for one hour. After cell lysis, cAMP production was quantified by a LANCE cAMP detection kit (Perkin Elmer). […] Data points represent the means±SEM from three independent experiments performed in triplicate. The EC50 and IC50 for each drug was determined using GraphPad Prism software.
cAMP accumulation was measured with a LANCE™ cAMP detection kit (Perkin-Elmer Life Sciences, Boston, MA, USA). 12 h before experiment cells were starved. Forty-eight h after transfection, cells were harvested in Hank's balanced salt solution (HBSS) containing 5 mM HEPES, 1 mM isobutylmethylxanthine (IBMX) and 0.1% BSA, PH 7.4. After centrifugation (1000×g, 5 min), cells were resuspended in the same buffer (2×10^6 per ml). The ALEXA™ fluor 647 anti-cAMP antibody solution (1 μl) was added to the cell suspension (100 μl) and 5 μl aliquots of the mixture were dispensed in white 384-well microtiter plates (Optiplate, Perkin Elmer). The cells were then stimulated with different drugs. After 1 h incubation at room temperature in the dark, lysis buffer (0.35% Triton X-100, 10 mM CaCl2, 50 mM HEPES) containing LANCE EU-W8044 labeled streptavidin and biotinylated-cAMP was added to the cells (10 μL per well). After 2 h incubation at room temperature in the dark, the plates were read on a VictorV™ microplate reader (Perkin-Elmer Life Sciences). Concentration/response curves were analyzed using Prism 4 software.
HEK-293 fibroblast stably expressing 5-HT7 receptor were used to compare the effect of different 5-HT7R ligands on the classical Gαs-mediated activation of AC pathway. It was decided to evaluate the lead compounds from two series of ligands, Serodolin and MOA-51 (FIG. 1A).

Structure (SMILES): O=c1[nH]c2ccccc2n1CN1CCN(c2ccc(F)cc2)CC1 [Serodolin]
- decrease in body temperature, Emax ([1]; 1 mg/kg, at 30 min): −2.9 °C
- decrease in body temperature, Emax ([1]; 3 mg/kg, at 30 min): −3.6 °C
- decrease in body temperature, Emax ([1]; 10 mg/kg, at 60 min): −7.9 °C
- IC50 ([2]; read-out: RLB 5-HT2Cedited IC50): 1110 nM
- Ki ([2]; read-out: RLB 5-HT2Cedited Ki): 182 nM
- duration of effect ([3]; 5 mg/kg): > 70 min
- tail-immersion latencies ([3]; 1 and 5 mg/kg, s.c.): significant dose-dependent increase in the tail-immersion latencies
- anti-nociceptive effect in 5-HT7R KO mice ([3]; 5-HT7R KO mice, subcutaneous): did not exert any anti-nociceptive effect
- onset of effect post administration ([3]; s.c.): ≤ 10 min
- IC50 ([4]; read-out: RLB 5-HT1A IC50): 203 nM
- Ki ([4]; read-out: RLB 5-HT1A Ki): 102 nM
- IC50 ([5]; 10 nM of 5-CT, one hour, read-out: IC50, decrease of the 5-CT induced cAMP accumulation (antagonist)): 5 ± 2 nM
- inhibition of cAMP production when tested alone (inverse agonist effect) ([5]; tested alone): around 75%
- IC50 ([5]; tested alone, read-out: IC50, inverse agonist effect on cAMP response): 14 nM
